The results in this text go back to patent US20190282492A1, “COSMETIC COMPOSITIONS FOR SKIN REPARATION” (Natura Cosméticos S.A., priority 2016, published 2019).

Holding throughout (assay type): cell-based
Experiment [1] in a line: Cell proliferation, Neutral Red detection method. The note with it: compared to the untreated control after 48 hours of treatment.
From the text: (§1) In another aspect, this invention also refers to an in vitro method of assessing skin repair, that is suitable for studying a variety of active ingredients, comprised of the following steps: • Step 1—Initial Indication: quantification of the FGF-2 growth factor through the flow cytometry technique; • Step 2—Inflammation: quantification of inflammatory cytokines (IL-1B, IL-6, IL-8, IL-10, IL-12 p70) through the flow cytometry technique; • Step 3—Cell proliferation and migration: • Cell proliferation through the Neutral Red detection method; • Cell migration through the ECIS and Scratch method; • Step 4—Remodeling and Resolution • Quantification of matrix metalloproteinase MMP-13 through the Enzyme-Linked Immunosorbent Assay (ELISA) technique; • Determination of collagenase/gelatinase enzyme activity (MMP-1 and MMP-3) and elastase (MMP-1 2) through the enzyme inhibition assay.
(§2) All the tests were conducted in triplicate, with experiments repeated at least twice, using negative control groups (no stimulation with active ingredients) and positive control groups (stimulated with molecules modulating the marker to be assayed). […]
as §1, with “As a result,” for “In another aspect,”, “project encompassed the following” for “invention also refers to an”, “assays:” for “method of assessing skin repair, that is suitable for studying a variety of active ingredients, comprised of the following steps:”, “FGF2” for “FGF-2”, “assay. […]” for “assay.”

The subject of a further experiment is MMP-13. As to the kind of experiment: Quantification of MMP-13 by ELISA. The note with it: compared to the untreated control.
From the text: as §1, §2
as §1, with “As a result,” for “In another aspect,”, “project encompassed the following” for “invention also refers to an”, “assays:” for “method of assessing skin repair, that is suitable for studying a variety of active ingredients, comprised of the following steps:”, “FGF2” for “FGF-2”
In general terms: An ELISA detects its analyte on a solid surface through an enzyme-linked reagent.

Another experiment has as its system FGF-2. As to the kind of experiment: Quantification of FGF-2 growth factor by flow cytometry. The note with it: in comparison to the negative control.
From the text: as §1, §2
In general terms: A flow cytometer gives signals particle by particle.

The subject of another experiment is IL-8. The experiment can be described thus: Quantification of inflammatory cytokines by flow cytometry (IL-8). The note with it: in terms of negative control.
From the text: as §1, §2

A further experiment relates to IL-10. As to the kind of experiment: Quantification of inflammatory cytokines by flow cytometry (IL-10). The note with it: in terms of negative control.
From the text: as §1, §2

As for `NC(=O)NC1NC(=O)NC1=O` (stereo not drawn) [allantoin], in experiment [1], the “increase in cell proliferation (in words)” value (shortened to “increase … (in words)”) is listed as “did not present significant increases”. The “MMP-13 quantification, increase” value in the experiment with MMP-13 is “threefold increases”.
For the molecule madecassoside, the FGF-2 increase result with FGF-2 is “up to 115 times”. In the experiment on IL-8, the IL-8 increase entry is reported as “twofold increase”. The IL-10 increase with IL-10 is given as 2.3 times. For the same molecule, the “increase … (in words)” value in experiment [1] is listed as “did not present significant increases”. Moreover, in the experiment on MMP-13, the “MMP-13 quantification, increase” value is “threefold increases”.

B1: papain (protein, UniProt P00784 134-345, looked up)
Papain: IPEYVDWRQKGAVTPVKNQGSCGSCWAFSAVVTIEGIIKIRTGNLNEYSEQELLDCDRRSYGCNGGYPWSALQLVAQYGIHYRNTYPYEGVQRYCRSREKGPYAAKTDGVRQVQPYNEGALLYSIANQPVSVVLEAAGKDFQLYRGGIFVGPCGNKVDHAVAAVGYGPNYILIKNSWGTGWGENGYIRIKRGTGNSYGVCGLYTSSFYPVKN
notes: standard (enzyme)
Consider B1, for which, in experiment [1], the “increase … (in words)” value is listed as “did not present significant increases”. Further, in the experiment with MMP-13, the “MMP-13 quantification, increase” value is “threefold increases”.
